Tests used:
[1] = system: differentiation of osteoclasts in co-culture of bone marrow cells and osteoblasts; assay: Osteoclast differentiation in co-culture of osteoblasts and bone marrow cells (TRAP staining); type: cell-based, ICR mice; settings: for Inhibitory activity on osteoclast differentiation in co-culture of bone marrow cells and osteoblasts: 4 μM; for TRAP-positive osteoclast cell number: co-culture, vitamin D3 and PGE2, 6 days, control 397+36.75
Description: (§1) Primary osteoblasts, bone marrow cells and osteoclast precursor cells were cultured in α-Minimum Essential Medium (α-MEM, Gibco BRL) supplemented with 10% (v/v) fetal bovine serum (Gibco BRL), and 1× antibiotics containing penicillin/streptomycin (Gibco BRL).
Until now, osteoclast cell lines have not been established, making it difficult to study differentiation of osteoclasts. Osteoclasts originate from hematopoietic stem cells derived from bone marrow, and differentiate with the help of osteoblasts/stromal cells. For these reasons, the co-culture system of osteoblasts and bone marrow cells is used for differentiation of osteoclasts. In these Experimental Examples, a differentiation system of bone marrow cells to osteoclasts was established by co-culture of osteoblasts and bone marrow cells, and, in this system, the CHJ-0014 compound was evaluated for its inhibitory effect on differentiation of osteoclasts.
After sacrificing one-day postnatal ICR mice and disinfecting them in 70% ethanol, calvarias were collected using surgical scissors and forceps, cut into several pieces, and transferred into 3× HBSS contained in a 60-mm culture dish. 0.1% collagenase (Gibco BRL) and 0.2% dispase (Boehringer Mannheim) were added to the solution, followed by incubation at 37° C. for 15 min. The treatment of calvarias with collagenase and dispase was repeated 4 more times. From the second treatment of calvarias with collagenase and dispase, the solution was centrifuged after each treatment at 1600 rpm for 5 min to harvest cells, thereby collecting osteoblasts. The collected osteoblasts were plated onto a 100-mm culture dish at a density of about 1-2×10^6 cells, and cultured in 15 ml of α-MEM supplemented with 10% FBS for 3 days. Thereafter, the proliferated osteoblasts were aliquotted into cryo-vials, and stored in liquid nitrogen until use in co-culture of osteoblasts and bone marrow cells.
(§2) After sacrificing 6-7 week ICR female mice by cervical dislocation and disinfecting their rear legs in 70% ethanol, tibias were isolated aseptically. The isolated tibias were placed into 3× HBSS (Gibco BRL), and soft tissue was completely removed. Both ends of tibias were cut, and 1×α-MEM was injected into bone marrow and then sucked up using a 1 ml syringe, collecting bone marrow cells. After sufficient suspending by pipetting, the collected bone marrow cells were centrifuged at 1600 rpm for 5 min to harvest cells. The resulting pellet (bone marrow cells and erythrocytes) was suspended in about 15-20 ml of ACK buffer (155 mM NH4Cl, 11 mM KHCO3, 0.01 mM EDTA). After incubation for 2 min, phosphate buffer was added to the cell suspension to minimize damage to bone marrow cells and lyse erythrocytes.
(§3) Thereafter, the cell suspension was centrifuged (1600 rpm, 5 min), and the resulting cell pellet was suspended in 10% FBS-containing α-MEM.
The isolated and cultured osteoblasts and bone marrow cells were co-cultured, as follows. Bone marrow cells and osteoblasts were plated onto a 48-well plate at a density of 2×10^5 cells and 2×10^4 cells per well, respectively, and co-cultured in 10% FBS-containing x-MEM. After adding vitamin D3 (10^−8 M) and PGE 2 (Prostaglandin E 2, 10^−6 M) to the culture medium, the cells were treated with the CHJ-0014 compound at various concentrations of 1.65 μM, 3.3 μM and 6.6 μM. A co-culture group not treated with the CHJ-0014 compound was used as a control. When the culture medium was exchanged with a fresh medium after incubation for 3 days, vitamin D3 (10^−8 M) and PGE 2 (10^−6 M) were again added to the medium, and the CHJ-0014 compound was also added to the medium at the same concentrations as above.
After incubation for 6 days, the culture medium was removed, and completely differentiated osteoclasts were fixed with 10% formalin for 5 min. After removing formalin, the fixed osteoclasts were treated with 0.1% Triton X-100 for 10 sec. […]

[2] = system: differentiation of osteoclasts in culture of bone marrow cells; assay: Osteoclast differentiation in culture of bone marrow cells induced by ODF and M-CSF (TRAP staining); type: cell-based, ICR mice; settings: for TRAP-positive osteoclast cell number: bone marrow cells, ODF 50 ng/ml, M-CSF 30 ng/ml, control 240±44
Description: as §1, §2, §3
In this test, to evaluate this possible scenario, only bone marrow cells were treated with a recombinant ODF protein and inhibitory activity of the CHJ-0014 compound on osteoclast differentiation was investigated in culture of only bone marrow cells. Bone marrow cells, isolated according to the same method as in Experimental Example 1, were plated onto a 48-well plate at a density of 4×10^5 cells, and cultured in 10% FBS-containing α-MEM. After adding ODF (50 ng/ml) and M-CSF (30 ng/ml) to the medium, the cells were treated with the CHJ-0014 compound at various concentrations of 0.825 μM, 1.65 μM, 3.3 μM and 6.6 μM. When the culture medium was exchanged with a fresh medium after incubation for 3 days, the cells were again treated with the identical amount of ODF, M-CSF and CHJ-0014. After incubation for 6 days, the culture medium was exchanged with a fresh medium, and the cells were further cultured for 2 more days.
Completely differentiated osteoclasts were identified by TRAP staining. TRAP staining was carried out using the Leukocyte Acid Phosphatase Kit (Sigma, Cat. No. 387-A). The culture medium was removed, and completely differentiated osteoclasts were fixed with 10% formalin for 5 min. After removing formalin, the fixed osteoclasts were treated with 0.1% Trypton X-100 for 10 sec. After removing Trypton X-100, the cells were stained with a TRAP staining solution in the kit for 5 min. After eliminating the TRAP staining solution, the cells were washed with distilled water twice, dried, and TRAP-positive osteoclasts were counted under an optical microscope (×100).

[3] = system: osteoclast precursor cells; assay: Differentiation of osteoclast precursor cells isolated from bone, ODF and M-CSF (TRAP staining); type: cell-based, ICR mice; settings: for TRAP-positive osteoclast cell number: osteoclast precursor cells, ODF 100 ng/ml, M-CSF 30 ng/ml, day 9, control 344±43.7
Description: as §1
Osteoclast progenitors derived from bone marrow cells migrate eventually to bone, differentiate to osteoclast precursors therein, and further differentiate to active osteoclasts having bone resorption ability and participate in bone resorption. That is, osteoclast precursor cells present in bone are at a different differentiation stage from the active osteoclasts. Recently, a cytokine playing a critical role in osteoclast differentiation was identified to be ODF (also called OPGL or RANKL), and a recombinant ODF protein can be produced on a large scale, thereby facilitating osteoclast differentiation by primary cell culture.
Osteoclast precursor cells were isolated from […]. After sacrificing 5-6 week ICR female mice by cervical dislocation and disinfecting their rear legs in 70% ethanol, tibias and femurs were isolated aseptically. After removing soft tissue according to the same method as in Example 2 from the isolated tibias and femurs, 3× HBSS (Gibco BRL) was injected into bone marrow several times, thereby collecting bone marrow cells, as follows. Bone was cut into small pieces using a surgical scissor, and incubated in a collagenase solution (1 mg/ml collagenase type II, 0.05% trypsin, 4 mM EDTA, Gibco BRL) contained in a culture dish at 37° C. for 15 min. The collagenase treatment was carried out 4 more times. After being treated three times, bone pieces were further cut into a smaller size. After one more treatment with collagenase, the bone pieces were washed with 3× HBSS five times. After completely removing the enzyme solution by centrifugation, the bone pieces were suspended in pre-cooled α-MEM, and placed onto ice for 15 min. After vortexing for 1 min, an equal volume of α-MEM was added to the bone suspension, followed by incubation on ice for 15 min. The bone suspension was filtered through a sterilized mass, and the obtained cells were cultured in 10% FBS-containing α-MEM.
The isolated and cultured osteoclast precusor cells were plated onto a 48-well plate at a density of 0.5×10^6 cells. After adding ODF (100 ng/ml) and M-CSF (30 ng/ml) to the medium, the cells were treated with the CHJ-0014 compound at various concentrations of 0.825 μM, 1.65 μM, 3.3 μM and 6.6 μM. A group not treated with the CHJ-0014 compound was used as a control. When the culture medium was exchanged with a fresh medium after incubation for 3 days, the cells were again treated with the identical amount of ODF, M-CSF and CHJ-0014. On day 6 after culturing, the culture medium was exchanged with a fresh medium, according to the same method as in on day 3. On day 9, TRAP staining was carried out, and TRAP-positive osteoclasts were counted under an optical microscope (×100).

[4] = system: osteoblasts; assay: Cytotoxicity by MTT assay, osteoblasts; type: cell-based, ICR mice; settings: 6.6 μM, 24 hrs
[5] = system: murine bone marrow cells; assay: Cytotoxicity by MTT assay, bone marrow cells; type: cell-based; settings: 6.6 μM, 24 hrs
[6] = system: peritoneal macrophages; assay: Cytotoxicity by MTT assay, peritoneal macrophages; type: cell-based; settings: 6.6 μM, 24 hrs
[7] = system: human embryonic kidney cell line 293T; assay: Cytotoxicity by MTT assay, 293T cells; type: cell-based; settings: 6.6 μM, 24 hrs
[8] = system: transcription factor NF-κB; assay: NF-κB activity by EMSA (electrophoresis mobility shift assay) in osteoclasts; type: cell-based; settings: osteoclast nuclear extract
Description: The CHJ-0014 compound was investigated for its inhibitory effect on the activity of the transcription factor NF-κB participating in osteoclast differentiation by performing EMSA (electrophoresis mobility shift assay). Osteoclasts were prepared according to the same method as in Experimental Experiment 3, and incubated in hypotonic lysis buffer (10 mM HEPES, pH 7.9, 1.5 mM MgCl2, 10 mM KCl, 0.5 mM DTT, 0.5 mM PMSF) on ice for 10 min. The osteoclast-containing solution was transferred into a microcentrifuge, supplemented with 0.1% NP40, and incubated for 15 min with occasional agitation. After centrifugation (4,000 rpm, 15 min), the resulting cell pellet was suspended in 15 μl of high salt buffer (20 mM HEPES, pH 7.9, 420 mM NaCl, 25% glycerol, 1.5 mM MgCl2, 0.2 mM EDTA, 0.5 mM PMSF, 0.5 mM DTT), and placed onto ice for 20 min. 75 μl of storage buffer (20 mM HEPES, pH 7.9, 100 mM NaCl, 20% glycerol, 0.2 mM EDTA, 0.5 mM PMSF, 0.5 mM DTT) was added to the cell suspension, and incubated with agitation for 10 sec. After centrifugation (14,000 rpm, 20 min), the resulting supernatant was subjected to protein quantitative assay. Protein assay was performed using a DC Protein Assay Kit (Bio-Rad).
A NF-κB-specific oligomer (5′-AGTTGAGGGGACTTTCCCA GGC-3′, Santa Cruz) was radiolabeled using [γ-^32P]ATP and […], and used as a probe. […]

SMILES	Inhibitory activity on osteoclast differentiation in co-culture of bone marrow cells and osteoblasts [1]	TRAP-positive osteoclast cell number ([1]; 1.65 μM)	TRAP-positive osteoclast cell number ([1]; 3.3 μM)	TRAP-positive osteoclast cell number ([1]; 6.6 μM)	Effect on differentiation of osteoclasts in co-culture of bone marrow cells and osteoblasts ([1]; 1.65-6.6 μM)	TRAP-positive osteoclast cell number ([2]; 0.825 μM)	TRAP-positive osteoclast cell number ([2]; 1.65 μM)	TRAP-positive osteoclast cell number ([2]; 3.3 μM)	TRAP-positive osteoclast cell number ([2]; 6.6 μM)	Effect on osteoclast differentiation induced by ODF in bone marrow cells ([2]; 0.825-6.6 μM)	TRAP-positive osteoclast cell number ([3]; 0.825 μM)	TRAP-positive osteoclast cell number ([3]; 1.65 μM)	TRAP-positive osteoclast cell number ([3]; 3.3 μM)	TRAP-positive osteoclast cell number ([3]; 6.6 μM)	Effect on osteoclast differentiation during differentiation of osteoclast precursors isolated from bone ([3]; 0.825-6.6 μM)	Cytotoxicity (MTT) [4]	Cytotoxicity (MTT) [5]	Cytotoxicity (MTT) [6]	Cytotoxicity (MTT) [7]	Effect on activation of the transcription factor NF-κB by osteoclast differentiation factor (ODF) [8]
CCCCCCCCCCCCCCCCCC(=O)NC(CO)COP(=O)([O-])OCC[N+](C)(C)C [CHJ-0013, N-stearoyl-O-phosphocholine-L-serine methylhydroxy]	inhibit osteoclast differentiation	–	–	–	–	–	–	–	–	–	–	–	–	–	–	–	–	–	–	–
CCCCCCCCCCCCCCCCCC(=O)NC(CO)COP(=O)(O)OCC[N+](C)(C)C [CHJ-0014, N-stearoyl-O-phosphocholine-D-serine methylhydroxy]	inhibit osteoclast differentiation	80±6.1	46±4.7	16±6.4	inhibits differentiation of osteoclasts in co-culture of bone marrow cells and osteoblasts in a dose-dependent manner	185±12.9	172+9.3	87+3.5	36+3.6	inhibits osteoclast differentiation induced by ODF in bone marrow cells in a dose-dependent manner	318±19.3	318±50.4	267±24	152±29.1	inhibits osteoclast differentiation during differentiation of osteoclast precursors isolated from bone in a dose-dependent manner	did not show cytotoxicity	did not show cytotoxicity	did not show cytotoxicity	did not show cytotoxicity	suppress activation of the transcription factor NF-κB
